# Data from patent EP4737448A1, “SARM1 ENZYME ACTIVITY INHIBITOR AND USE THEREOF” (Artivila (ShenZhen) Innovation Center, Ltd., priority 2023, dated 2025).
# Legend:
# SARM1 = biological target: T1, SARM1 (Homo sapiens, UniProt Q6SZW1); test: In vitro biochemical assay for inhibiting SARM1 enzymatic activity (PC6 fluorescence, NAD substrate, NMN activator); conditions: 0.05 µg/mL SARM1, 50 µM NAD, 50 µM PC6, 50 µM NMN, 10 min pre-incubation, 30 min at room temperature
# T1 construct: the inventor produces full-length SARM1 for NADase activity assays and for screening; His (C); made in house; host or cells: HEK293 cells (transient transfection; digitonin lysate supernatant, not purified further)
# T1 sequence (Q6SZW1 28-724): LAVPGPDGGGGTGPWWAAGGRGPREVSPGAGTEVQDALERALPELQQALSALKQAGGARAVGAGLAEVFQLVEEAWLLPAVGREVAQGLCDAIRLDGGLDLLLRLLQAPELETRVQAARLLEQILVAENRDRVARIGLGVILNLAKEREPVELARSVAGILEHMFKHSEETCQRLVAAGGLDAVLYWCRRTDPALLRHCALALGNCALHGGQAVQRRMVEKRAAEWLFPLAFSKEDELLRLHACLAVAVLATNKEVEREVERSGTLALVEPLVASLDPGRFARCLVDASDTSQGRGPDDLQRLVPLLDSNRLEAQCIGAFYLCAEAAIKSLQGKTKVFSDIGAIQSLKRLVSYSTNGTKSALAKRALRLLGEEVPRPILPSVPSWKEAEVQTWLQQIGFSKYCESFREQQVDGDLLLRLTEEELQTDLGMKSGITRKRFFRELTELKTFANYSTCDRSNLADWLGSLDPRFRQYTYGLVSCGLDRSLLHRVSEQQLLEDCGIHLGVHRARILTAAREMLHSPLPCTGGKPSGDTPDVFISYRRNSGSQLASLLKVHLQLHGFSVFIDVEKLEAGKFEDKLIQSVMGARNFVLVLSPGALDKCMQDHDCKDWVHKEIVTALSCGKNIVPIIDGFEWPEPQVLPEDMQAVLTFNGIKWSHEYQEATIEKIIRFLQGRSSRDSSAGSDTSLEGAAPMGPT
# Experimental: Compounds to be tested were stocked at 200 µM or 10 mM (in DMSO), and further diluted to the desired compound concentration for the in vitro SARM1 enzyme assay and inhibitor screening.
# The gene sequence encoding SARM1 protein was amplified by PCR and the PCR amplification product was constructed into the pcDNA3.1-HIS-C plasmid. This construction was completed by YouBio Biological Technology (Hunan, China).
# HEK293 cells were cultured in DMEM in a 10 cm dish. The next day, cells were transfected with 15 µg of the pcDNA3.1-SARM1-HIS-C expression plasmid.
# Cells were harvested 48 hours after the transfection. The SARM1 protein expressed in cells was obtained through cell lysis by digitonin, which was used for in vitro activity assay. The specific process was as follows:
# Cells were digested and detached from the dish using trypsin-EDTA, centrifuged at 1000 rpm for 5 minutes, washed once with PBS, then resuspended in PBS containing 100 µM digitonin at 0.6 mL PBS for the cells in 10 cm dish and lysed for 5 min. The cells were added with trypan blue and observed under a microscope. More than 90% of the cells were confirmed to be lysed. The cells were centrifuged at 5000 rpm for 10 min, and the supernatant containing SARM1 protein was collected.
# The compound was added into a solution of 50 mM Tris-HCl (pH 7.5) containing 0.05 µg/mL SARM1 to achieve a concentration of 200 µM, and then serially diluted 6 times, where each dilution was carried out by taking half of the previous solution and adding an equal volume of 50 mM Tris-HCl (pH 7.5) containing 0.05 µg/mL SARM1, yielding a set of final concentrations of the compound of either 200, 100, 50, 25, 12.5, 6.25 and 3.125 µM, or 200, 50, 12.5, 3.125, 0.78, 0.195 and 0.049 µM. No inhibitor was added in the control group. All mixtures were incubated at room temperature for 10 min.
# Subsequently, 50 µM NAD, 50 µM PC6 as substrate and 50 µM NMN as activator were added to the SARM1 protein incubated with the inhibitor and reacted for 30 min at room temperature. Wherein, the aforementioned concentrations of each component represent their respective final concentrations in the reaction system
# During the reaction, the fluorescence spectrum dynamics of PC6 was detected by a microplate reader, with excitation and emission wavelengths set at 390 nm and 520 nm, respectively. The activity of the protein was expressed as the reaction rate and half maximal inhibitory concentration was calculated. The higher the reaction rate, the stronger the protein activity, and the lower the inhibitory efficiency of the compound.
# Dose-response curves for inhibition of SARM1 enzymatic activity for NAD by the compounds were plotted using the above method.
# [1] = tested on: axons of dorsal root ganglia explants; test: Wallerian degeneration assay of axon in mouse DRG explant culture; type: cell-based, C57BL/6 mice; conditions: 10 µM compound, 2 h pretreatment, 24 h post axonal transection
# Experimental: Dorsal root ganglia were dissected from two-month-old male C57BL/6 mice and placed into a 35-mm culture dish containing ice-cold HBSS buffer. Extra tissue surrounding each dorsal ganglion was removed using a scalpel, and the ganglia were cut into 2-3 explant pieces. These explants were seeded into wells of a 96-well plate pre-coated with 100 ng/mL Matrigel (Corning), added with 100 µL of DRG medium (Neurobasal medium (Gibco) containing 2% B-27 (Gibco), 1% GlutaMAX (Gibco) and 10 ng/mL NGF (MCE)), and cultured in a 37°C incubator for one week. The medium was half- replaced on the fourth day and the experiments were counted on the eighth day.
# Refer to methods reported in literatures in the related art (Gerdts J, Sasaki Y, Vohra B, Marasa J, Milbrandt J. Image-based screening identifies novel roles for IkappaB kinase and glycogen synthase kinase 3 in axonal degeneration. J Biol Chem. 2011 Aug 12;286(32):28011-8) for the definition and measurement principle of the degeneration index of axon. In the present disclosure, the measurement method is detaild below.
# 0.1 µL of 10 mM compound to be tested was added to 100 µL of DRG medium to prepare a new medium containing 10 µM compound to be tested. The medium in the 96-well plate was removed and replaced with the new medium containing the compound to be tested. Explant pieces of dorsal ganglia were incubated with compounds in a 37°C incubator for 2 h of pre-protection. Following this 2-hour pretreatment, axons were transcted near the explants tissue piece using a glass microelectrode. At 0 h and 24 h post axonal transection, brightfield images of axons in the same region were captured using a microscope (Olympus) with 20× objective. Axonal integrity was assessed using an in-house developed script. The results were categorized based on the degree of protection into: (A) >50% and (B) 20-50%.
IC50 (SARM1),SMILES,Degree of protection against axonal Wallerian Degeneration [1]
< 1000 nM,"O=C1N(Cc2ccc(Cl)cc2)CCN1c1ccc(-c2ccncc2)nn1 [Compound 59, 1-(4-chlorobenzyl)-3-(6-(pyridin-4-yl)pyridazin-3-yl)imidazolidin-2-one]",B ((B) 20-50%)
< 1000 nM,O=C1C(Cc2ccc(C(F)(F)F)cc2)CCN1c1ccc(-c2ccncc2)nn1 (centres unmarked) [Compound 60],B ((B) 20-50%)
< 1000 nM,O=C1C(Cc2ccc(Cl)c(F)c2)CCN1c1ccc(-c2ccncc2)nn1 (centres unmarked) [Compound 62],B ((B) 20-50%)
< 1000 nM,O=C1C(Cc2ccc(Cl)nc2)CCN1c1ccc(-c2ccncc2)nn1 (centres unmarked) [Compound 64],A ((A) >50%)
< 1000 nM,O=C1C(Cc2ccccc2)CCN1c1ccc(-c2ccncc2)nn1 (centres unmarked) [Compound 65],B ((B) 20-50%)
< 1000 nM,O=C1C(Cc2ccc(Cl)s2)CCN1c1ccc(-c2ccncc2)nn1 (centres unmarked) [Compound 66],A ((A) >50%)
< 1000 nM,O=C1C(Cc2ccc(F)c(F)c2)CCN1c1ccc(-c2ccncc2)nn1 (centres unmarked) [Compound 67],A ((A) >50%)
< 1000 nM,O=C1C(Cc2ccc(Cl)cc2F)CCN1c1ccc(-c2ccncc2)nn1 (centres unmarked) [Compound 69],B ((B) 20-50%)
< 1000 nM,O=C1C(Cc2ccc(F)cc2F)CCN1c1ccc(-c2ccncc2)nn1 (centres unmarked) [Compound 70],B ((B) 20-50%)
< 1000 nM,O=C1C(Cc2cc(F)c(F)c(F)c2)CCN1c1ccc(-c2ccncc2)nn1 (centres unmarked) [Compound 71],A ((A) >50%)
< 1000 nM,O=C1C(Cc2cc(F)c(F)c(F)c2)CCN1c1ccc(-c2ccncc2)cc1 (centres unmarked) [Compound 72],A ((A) >50%)
< 1000 nM,"O=C1C(Cc2ccc(Cl)cc2)CCN1c1ccc(-c2ccncc2F)nn1 (centres unmarked) [Compound 75, 3-(4-chlorobenzyl)-1-(6-(3-fluoropyridin-4-yl)pyridazin-3-yl)pyrrolidin-2-one]",A ((A) >50%)
< 1000 nM,"O=C1C(Cc2ccc(Cl)cc2)CCN1c1ccc(-c2ccncc2Cl)nn1 (centres unmarked) [Compound 76, 3-(4-chlorobenzyl)-1-(6-(3-chloropyridin-4-yl)pyridazin-3-yl)pyrrolidin-2-one]",B ((B) 20-50%)
1000 to 10000 nM,"[2H]C(c1ccc(Cl)cc1)C1([2H])CCN(c2ccc(-c3ccncc3)cc2)C1=O (centres unmarked) [Compound 80, 3-((4-chlorophenyl)methyl-deutero)-1-(4-(pyridin-4-yl)phenyl)-3-deutero-pyrrolidin-2-one]",B ((B) 20-50%)
< 1000 nM,"[2H]C1(Cc2ccc(F)c(F)c2)CCN(c2ccc(-c3ccncc3)cc2)C1=O (centres unmarked) [Compound 83, 3-(3,4-difluorobenzyl)-1-(4-(pyridin-4-yl)phenyl)-3-deutero-pyrrolidin-2-one]",A ((A) >50%)
1000 to 10000 nM,"O=C1N(c2ccc(-c3ccncc3)cc2)CCC1(O)Cc1ccc(F)c(F)c1 (centres unmarked) [Compound 84, 3-(3,4-difluorobenzyl)-3-hydroxy-1-(4-(pyridin-4-yl)phenyl)pyrrolidin-2-one]",B ((B) 20-50%)
